Test results: ChEMBL document CHEMBL1132668, “The design of potent and selective inhibitors of thrombin utilizing a piperazinedione template: part 1” (Bioorg Med Chem Lett, 1999)

How the values were obtained:
Serine protease 1 [1] = biological target: T1, Serine protease 1 (Homo sapiens, UniProt P07477); assay: Inhibitory activity against human trypsin
Prothrombin [2] = biological target: T2, Prothrombin (Homo sapiens, UniProt P00734); assay: Inhibitory activity against human thrombin
Prothrombin [3] = biological target: T2, Prothrombin; assay: Binding affinity against thrombin
Serine protease 1 [4] = biological target: T1, Serine protease 1; assay: Compound was tested for the binding affinity against trypsin
Serine protease 1 [5] = biological target: T1, Serine protease 1; assay: Tested for the inhibition of trypsin at a concentration of 100 uM

T1 sequence (P07477 whole entry): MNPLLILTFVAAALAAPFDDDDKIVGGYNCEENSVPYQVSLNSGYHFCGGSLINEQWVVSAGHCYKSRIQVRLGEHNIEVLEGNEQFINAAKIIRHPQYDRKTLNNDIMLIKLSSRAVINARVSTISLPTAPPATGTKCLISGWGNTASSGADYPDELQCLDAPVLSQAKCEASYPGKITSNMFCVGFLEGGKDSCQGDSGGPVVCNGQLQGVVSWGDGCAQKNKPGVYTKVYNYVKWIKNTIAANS

IC50 (Serine protease 1 [1])	IC50 (Prothrombin [2])	Ki (Prothrombin [3])	Ki (Serine protease 1 [4])	inhibition (Serine protease 1 [5])	SMILES
18500 nM	430 nM	75 nM	–	–	N=C(N)N1CCCC(C[C@H](NC(=O)CN2C(=O)CN(CCCc3ccccc3)C(=O)[C@@H]2CC2CCCCC2)C(=O)c2nccs2)C1 (stereo partly specified)
27000 nM	45 nM	30 nM	13.5 nM	–	N=C(N)N1CCCC(C[C@H](NC(=O)CN2C(=O)CN(CCCc3ccccc3)C(=O)[C@@H]2Cc2ccc3ccccc3c2)C(=O)c2nccs2)C1 (stereo partly specified)
3800 nM	350 nM	43 nM	–	–	COc1ccc(C[C@H]2C(=O)N(CCCc3ccccc3)CC(=O)N2CC(=O)N[C@@H](CC2CCCN(C(=N)N)C2)C(=O)c2nccs2)cc1 (stereo partly specified)
42700 nM	1600 nM	98 nM	–	–	CCCC[C@H]1C(=O)N(CCCc2ccccc2)CC(=O)N1CC(=O)N[C@@H](CC1CCCN(C(=N)N)C1)C(=O)c1nccs1 (stereo partly specified)
–	3400 nM	200 nM	–	67%	CCC(C)[C@H]1C(=O)N(CCCc2ccccc2)CC(=O)N1CC(=O)N[C@@H](CC1CCCN(C(=N)N)C1)C(=O)c1nccs1 (stereo partly specified)
33400 nM	170 nM	40 nM	–	–	N=C(N)N1CCCC(C[C@H](NC(=O)CN2C(=O)CN(CCCc3ccccc3)C(=O)[C@@H]2Cc2ccc(Cl)cc2)C(=O)c2nccs2)C1 (stereo partly specified)
–	1000 nM	–	–	40%	N=C(N)N1CCCC(C[C@H](NC(=O)CN2C(=O)CN(CCCc3ccccc3)C(=O)[C@@H]2Cc2cccnc2)C(=O)c2nccs2)C1 (stereo partly specified)
–	4300 nM	165 nM	–	69%	CC(C)C[C@H]1C(=O)N(CCCc2ccccc2)CC(=O)N1CC(=O)N[C@@H](CC1CCCN(C(=N)N)C1)C(=O)c1nccs1 (stereo partly specified)
11100 nM	–	–	–	–	N=C(N)N1CCCC(C[C@H](NC(=O)CN2C(=O)CN(Cc3ccccc3)C(=O)[C@@H]2Cc2ccc3ccccc3c2)C(=O)c2nccs2)C1 (stereo partly specified)
29000 nM	590 nM	105 nM	–	–	N=C(N)N1CCCC(C[C@H](NC(=O)CN2C(=O)CN(CCCc3ccccc3)C(=O)[C@@H]2CCc2ccccc2)C(=O)c2nccs2)C1 (stereo partly specified)
9700 nM	750 nM	–	–	–	N=C(N)N1CCCC(C[C@H](NC(=O)CN2C(=O)CN(CCCc3ccccc3)C(=O)C2C(c2ccccc2)c2ccccc2)C(=O)c2nccs2)C1 (stereo partly specified)
–	240 nM	24 nM	–	80%	N=C(N)N1CCC[C@@H](C[C@H](NC(=O)CN2C(=O)CN(CCCc3ccccc3)C(=O)[C@@H]2Cc2ccccc2)C(=O)c2nccs2)C1
26600 nM	1270 nM	140 nM	–	–	CN1CC(=O)N(CC(=O)N[C@@H](CC2CCCN(C(=N)N)C2)C(=O)c2nccs2)[C@@H](Cc2ccc3ccccc3c2)C1=O (stereo partly specified)
24000 nM	760 nM	65 nM	–	–	C[C@H]1C(=O)N(CCCc2ccccc2)CC(=O)N1CC(=O)N[C@@H](C[C@@H]1CCCN(C(=N)N)C1)C(=O)c1nccs1
90 nM	130 nM	–	–	–	N=C(N)NCCC[C@H](NC(=O)CN1C(=O)CN(CCCc2ccccc2)C(=O)[C@@H]1Cc1ccccc1)C(=O)c1nccs1
74800 nM	1800 nM	–	–	–	CC(C)[C@H]1C(=O)N(CCCc2ccccc2)CC(=O)N1CC(=O)N[C@@H](CC1CCCN(C(=N)N)C1)C(=O)c1nccs1 (stereo partly specified)
91200 nM	4700 nM	495 nM	–	–	N=C(N)N1CCCC(C[C@H](NC(=O)CN2CC(=O)N(CCCc3ccccc3)CC2=O)C(=O)c2nccs2)C1 (stereo partly specified)
